These are literature values, as cited in patent publication US20070178172A1, “Composition for reducing blood lipids” (MAXLUCK BIOTECHNOLOGY CORP., priority 2004, published 2007).

The subject of this series is obesity mouse. The settings on record: Cefalu et al. 2002.

With chromium picolinate, the “effect on blood lipids” value is reported as “could reduce the blood lipids”.
